Laboratory results as given in patent publication US10179160B2, “Therapeutic compositions for the treatment of dry eye disease” (SCHEPENS EYE RESEARCH INSTITUTE, priority 2010, dated 2019).

Tests used:
DED mice [1] = assay: Real-time PCR of proinflammatory cytokines in conjunctiva of DED mice; format: in vivo
Text: (§1) Eight to ten week-old female C57BLI6 mice (Charles River Laboratory, Wilmington, Mass.) were used in accordance with the standards in the ARVO Statement for the Use of Animals in Ophthalmic and Vision Research. The research protocol was approved by the Schepens Eye Research Institute Animal Care and Use Committee. Dry eye was induced in murine eyes using a Controlled Environment Chamber (CEC) which exposes the mice to high-flow desiccated air. To achieve maximum ocular surface dryness, the conditions in CEC were supplemented with topical application of 1% atropine sulfate (Falcon Pharma, Fort Worth, Tex.) twice for the first 48 hours and subcutaneous injections of 0.1 ml of 5 mg/ml of scopolamine hydrobromide (Sigma-Aldrich, St. Louis, Mo.) three times a day, for the entire duration of the experiment.
(§2) Five mice (10 eyes) were included in each group. Two corneas were pooled together to equal as one sample and stored at −80′C in Trizol (Invitrogen, Carlsbad, Calif.; catalog No. 15596026) until future use. Total RNA was isolated from these corneas using the RNeasy microkit (Qiagen, Valencia, Calif.; catalog No. 74004). Equal amounts of RNA were used to synthesize cDNA using SuperScript™ III Reverse Trancriptase (Invitrogen, Carlsbad, Calif.; catalog No. 18080) according to the manufacturer's recommendations. Real-Time PCR was performed using FAM-MGB dye labeled predesigned primers (Applied Biosystem, Foster City, Calif.) for GAPDH (assay ID.Mm999999 15_g1), VEGF-A (Mm00437304_m1), VEGF-C (Mrn00437313_m1), VEGF-D (Mm00438965_m1), VEGFR-2 (Mm00440099_m1), VEGFR-3 (Mm00433337_m1). 2.5 μl of cDNA was loaded in each well and assays were performed in duplicate. The GAPDH gene was used as the endogenous reference for each reaction. The results were normalized by the cycle threshold (CT) of GAPDH and the relative mRNA level in the normal mice was used as the normalized control.
(§3) Anti-VEGF-C antibodies (VGX-100; Vegenics Limited, Australia) were administered intraperitonealy daily from day 1 to day 10 to DED mice. Mice were assessed clinically using corneal fluorescent staining. Tissues from cornea, conjunctiva and draining lymph nodes were examined for cellular and molecular pathological changes.
(§4) Real time PCR was performed to quantify expression of different VEGF growth factors (VEGF-A, VEGF-C, VEGF-D) and their receptors (VEGFR-2, VEGFR-3) in the cornea at days 6, 10 and 14 (FIG. 8) and to determine the levels of proinflammatory cytokines.

DED mice [2] = assay: Real-time PCR of pro-lymphangiogenic growth factors and receptors in DE corneas; format: in vivo; conditions: VEGF-C blockade in DED mice
Text: as §1
as §2, with “The results were normalized by the cycle threshold (CT) of GAPDH and the relative mRNA level in the normal mice was used as the normalized control.” left out
as §4

DED mice [3] = assay: Corneal lymphangiogenesis (lymphatic growth) in DED mice; conditions: in vivo blockade of VEGF-C in DED mice
Text: (§5) Eight to ten week-old female C57BLI6 mice (Charles River Laboratory, Wilmington, Mass.) were used in accordance with the standards in the ARVO Statement for the Use of Animals in Ophthalmic and Vision Research. The research protocol was approved by the Schepens Eye Research Institute Animal Care and Use Committee. Dry eye was induced in murine eyes using a Controlled Environment Chamber (CEC) which exposes the mice to high-flow desiccated air. […]
(§6) Freshly excised corneas were washed in PBS, fixed in acetone for 15 minutes and then double stained with CD31 and LYVE-1 as described previously. To analyze infiltration of CD11b^+/LYVE-1 cells, corneas from three mice from each group were taken and cells were counted in 5-6 areas in the periphery ([…] area from the limbus) of each cornea in a masked fashion, using epifluorescence microscope (model E800; Nikon, Melville, N.Y.) at 40× magnification. The mean number of cells was obtained by averaging the total number of cells in all the areas studied and the result was expressed as the number of positive cells per mm^2.
Morphology of lymphatics was analyzed using an automated image analysis program written with Matlab (The Mathworks, Inc., Natick, Mass.). […] The resultant isolated lymphatic vessels were analyzed morphologically using two metrices, Lymphatic Area (LA) and Lymphatic Caliber (LC). […]

DED mice [4] = assay: Corneal fluorescein staining / clinical signs in experimental dry eye murine model; format: in vivo; conditions: for clinical signs of DED / disease severity: anti-VEGF-C-treated vs untreated DED mice
Text: as §1, §3
Corneal lymphatics play an important role in mediating the corneal inflammation in dry eyes. Experiments: To validate this, inhibition of corneal neolymphangiogenesis was performed in a well characterized mouse model of DED described above. To see if inhibition of corneal neolymphangiogenesis could decrease ocular surface inflammation, anti-VEGF-C antibodies were administered i.p. daily from day −1 to day 10 to DED mice and assessed clinically using corneal fluorescein staining.
Methods (as described previously): Induction of Dry Eye Disease. Experimental Dry Eye Murine Model. Assessment of Corneal Surface: Corneal Fluorescein Staining. Immunohistochemistry: Monocyte/macrophage marker—CD11b; Pan-endothelial marker—CD31; Lymphatic endothelial marker—LYVE-1; Blood vessels: CD31^hi/LYVE-1; Lymph vessels: CD31^lo/LYVE-1^hi. Morphometry of Lymphangiogenesis: Automated image analysis program written using Mat lab. Lymphatic Area (LA)—total surface area of the lymphatic vessels when projected into the plane of the image. Lymphatic Caliber (LC)—measure of the diameters of the lymphatic vessels.
Anti-VEGF-C antibody and treatment regimen. Experimental design: Three groups: Normal, DE group treated with IP normal Saline (Untreated) and DE group treated with anti-VEGF-C antibody (VGX-100; a gift from Vegenics, Australia). Daily IP application of anti-VEGF-C antibody/Normal saline from day −1 to day 13. Dose: […] (20 mg/kg) in […] of Normal Saline.

DED mice [5] = assay: Enumeration of CD11b+ cells in DED corneas (immunohistochemistry); format: in vivo
Text: as §5, §6
(§7) Anti-VEGF-C antibodies (VGX-100; Vegenics Limited, Australia) were administered intraperitonealy daily from day 1 to day 10 to DED mice. Mice were assessed clinically using corneal fluorescent staining. […]

DED mice [6] = assay: Real-time PCR of IL-17 and IFN-γ in draining lymph nodes of DED mice; format: in vivo; conditions: anti-VEGF-C treated vs untreated DED mice
Text: as §1
Five mice (10 eyes) were included in each group. […]
as §7, §4

[7] = real-time PCR, anti-VEGF-C treated vs untreated DED mice

Substance: VGX-100: human anti-VEGF-C monoclonal antibody produced by hybridoma ATCC PTA-4095, heavy/light chains SEQ ID NO: 48/49; from Vegenics
- mRNA expression levels of proinflammatory cytokines in the conjunctiva (DED mice [1]; VEGF-C blockade in DED mice): decrease
- IL-1α expression in conjunctiva (DED mice [1]; [7]): significantly decreased expression
- IL-1β expression in conjunctiva (DED mice [1]; [7]): significantly decreased expression
- IL-6 expression in conjunctiva (DED mice [1]; [7]): significantly decreased expression
- IL-17 expression in conjunctiva (DED mice [1]; [7]): significantly decreased expression
- expression of VEGF-C in DE corneas (DED mice [2]): decrease
- expression of VEGF-D in DE corneas (DED mice [2]): decrease
- expression of VEGFR-3 (R3) in DE corneas (DED mice [2]): decrease
- corneal lymphangiogenesis / lymphatic growth (DED mice [3]): suppresses
- corneal lymphangiogenesis / lymphatic growth (DED mice [3]; listed as anti-VEGF-C): suppression
- corneal epitheliopathy (DED mice [4]; VEGF-C blockade in DED mice): decrease
- Corneal fluorescein staining (CFS) score (DED mice [4]; anti-VEGF-C Ab-treated vs untreated DED mice, days 5, 9 and 13, daily IP, 20 mg/kg): significantly decreased
- clinical signs of DED / disease severity (DED mice [4]; daily IP): ameliorates
- clinical signs of DED / disease severity (DED mice [4]; daily IP, listed as anti-VEGF-C): significant decrease
- corneal infiltration of CD11b+ cells (DED mice [5]; VEGF-C blockade in DED mice): decrease
- decrease of infiltration of CD11b+ cells in the DED corneas (DED mice [5]; day 14): 30%
- IFN-γ (Th1 cells) in draining lymph nodes, induction of T-cell mediated autoimmune response (DED mice [6]): significantly decreased induction
- IL-17 (Th17 cells) in draining lymph nodes, induction of T-cell mediated autoimmune response (DED mice [6]): significantly decreased induction
